For the assay, the system named is rat taxol induced neuropathy model. The assay can be described thus: Rat taxol neuropathy model (sensory nerve conduction velocity). It counts as in vivo, Sprague-Dawley female rats. Conditions: once daily. How it is done: In vivo efficacy of representative compounds were tested with rat taxol induced neuropathy model reported by Cliffer et al. (Ann. Neurol 43:46-55, 1998).
Method Sprague-Dawley female rats (215-225g) were used. One week prior to the initiation of dosing with test compounds, base line electrophysiological recording were obtained. Dosing of the test compounds was initiated one day prior to the first injection of taxol (A.G. Scientific). Beginning on Day 2 animals were injected with total of two doses of 15 mg/kg paclitaxel giving 3 days apart, for a cumulative dose of […].
On Day 1 of the study, all rat were randomized into groups of 10 each and weighed. Dosing with test compounds was initiated on Day 1 and continued for a total of 45 days. Test compounds were administered by intraperitoneal (i.p.) injection or by post orum (p.o.) gavage in conscious once daily. Paclitaxel was administered on Day 2 and 5 by tail vein injection at 6 mg/ml in 50% saline/25%Cremophore/25% ethanol. One group was given the paclitaxel vehicle alone in an equivalent volume. Test compounds were formulated for dosing daily, immediately prior to dosing. The compounds were formulated by adding 15% of the final volume of pure PEG400 to the compounds and mixed on an orbital shaker for 40 minutes. Following dissolution, saline was added and the solution was vortexed. Taxol (A.G. Scientific) is solvated with Cremophore-ethanol vehicle at 12 mg/ml and then diluted 50/50 with saline. The test compounds are solvated with saline at appropriate concentration.
Sensory and motor nerve conduction velocities were evaluated using a method based in the protocol described by De Koning and Gispen (Peptides 8:415-422, 1987). Electrophysiological evaluation was carried out as a double blind study. Animals were anesthetized with isofluorane. In order to maintain body temperature, anesthetized animals were placed on Deltaphase ™ Isothermal Pads and rectal temperatures were monitored. Stimulating needle electrodes were inserted close to the sciatic nerve at the sciatic notch and the tibial nerve near the ankle. Subcutaneous recording electrodes were placed over the distal lumbricales foot muscles. Stimuli were supramaximal square-waves of 0.1 msec duration generated with a Grass S88 Stimulator through a Grass stimulation isolation unit. An ETH-260 Bride/Bio Amplifier (CB Sciences Inc), computer (Macintosh Iici), and data acquisition system (MacLab/200) were used for the recordings. The motor and sensory nerve conduction velocities were calculated by measuring the distance between the sciatic notch and ankle sites, and the latency between the M-wave and the H-reflex. The electrophysiological evaluations were conducted 2 weeks later. Statistical analysis was carried out using unpaired t-tests and repeated measures of analysis of variance (ANOVA) using Statview. In all cases 5% was chosen as the level of statistical significance in two-tailed tests.

[1] abbreviates: p.o. administration, 20 mg/kg, FIG. 2, 3.

Turning to `COC(=O)CC(CSC[C@H](NC(C)=O)C(=O)OC)C(=O)c1cccnc1` (stereo partly drawn) [compound 60], under “i.p. administration at 10 mg/kg, FIG. 1, 3”, the “amelioration of taxol-induced retardation of sensory nerve conduction velocity” value (“amelioration” for short) is reported as “active”.

`CC(=O)NCCSCC(CC(=O)N(C)C)C(=O)c1cccnc1` (stereo not drawn) [compound 188]: the “amelioration” value (p.o. administration, 40 mg/kg, FIG. 2, 3) is listed as “active”.

Regarding `CC(=O)NCCSCC(CC(=O)N1CCCCC1)C(=O)c1cccnc1` (stereo not drawn) [compound 189], the “amelioration” value by setting is: (i.p. administration at 2.5 mg/kg, FIG. 2) “active”; under setting [1], “active”.

Regarding `CCN(CC)CCN(C)C(=O)C(CSCC(CC(=O)N(C)C)C(=O)c1cccnc1)NC(C)=O` (stereo not drawn) [compound 438], the “amelioration” value under setting [1] was “active”.

Regarding `CC(=O)N[C@@H](CSCC(CC(=O)N(C)C)C(=O)c1cccnc1)C(=O)N1CCN(C)CC1` (stereo partly drawn) [compound 440], the “amelioration” value under setting [1] is given as “active”.

Values taken from US6399606B1, “Neuroprotective agents and methods related thereto” (Nippon Kayaku Co., Ltd., priority 1999, dated 2002).
